This is an account of results in patent US20200131156A1, “ARYLSULFONYLPYROLECARBOXAMIDE DERIVATIVES AS Kv3 POTASSIUM CHANNEL ACTIVATORS” (H. Lundbeck A/S, priority 2018, published 2020).

The test deals with T1, hKv3.1b (Homo sapiens, UniProt P48547).
T1 construct: expressed in transfected cells
T1 sequence (P48547 1-585 isoform P48547-2): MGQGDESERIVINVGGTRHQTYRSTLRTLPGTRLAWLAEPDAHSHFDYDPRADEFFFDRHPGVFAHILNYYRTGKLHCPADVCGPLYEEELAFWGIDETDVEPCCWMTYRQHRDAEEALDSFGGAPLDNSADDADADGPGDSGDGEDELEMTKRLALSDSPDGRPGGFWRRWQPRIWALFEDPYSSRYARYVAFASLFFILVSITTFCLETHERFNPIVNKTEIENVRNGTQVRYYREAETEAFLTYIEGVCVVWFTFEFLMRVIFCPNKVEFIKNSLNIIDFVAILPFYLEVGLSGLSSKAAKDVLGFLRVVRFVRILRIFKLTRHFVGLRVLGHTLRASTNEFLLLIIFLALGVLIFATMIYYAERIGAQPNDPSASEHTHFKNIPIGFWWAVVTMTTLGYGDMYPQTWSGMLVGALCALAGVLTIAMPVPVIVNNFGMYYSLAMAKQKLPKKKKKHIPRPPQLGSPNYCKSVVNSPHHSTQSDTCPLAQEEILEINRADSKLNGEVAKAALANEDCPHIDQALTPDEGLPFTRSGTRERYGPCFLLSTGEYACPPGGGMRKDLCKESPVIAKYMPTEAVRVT
The test is described as follows: Automated patch clamp (QPatch-16x) on HEK-293 cells stably expressing hKv3.1b. It is filed as cell-based. Conditions: for ECdelta5 mV: concentration needed to shift the activation threshold 5 mV; for Threshold Shift: maximum absolute hyperpolarizing shift of activation threshold at tested concentrations 0.37-30 μM. In outline:
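Whole-cell automated patch clamp, extracellular pH 7.4, 4 mM Na2ATP intracellular; holding −80 mV, 200 ms steps −70 to +10 mV. Five ascending concentrations (0.37–30 μM) per cell, ~3 min each, 0.33% DMSO vehicle. Activation threshold (5% of vehicle peak at 10 mV) shift fitted sigmoidally; ECdelta5 mV read from curve.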
(In general: The patch-clamp technique gives a direct electrical read-out from membranes.)

Regarding `COc1ccnc(CNC(=O)c2ccn(S(=O)(=O)c3ccc(C)cc3)c2)c1` [Compound 19, N-[(4-methoxy-2-pyridyl)methyl]-1-(p-tolylsulfonyl) pyrrole-3-carboxamide], the “ECdelta5 mV” value was 2100 nM and the “Threshold Shift” value was determined as 11 mV.

As to `Cc1ccccc1S(=O)(=O)n1ccc(C(=O)NCc2cnn(C)c2)c1` [Compound 76, 1-(2-methylbenzene-1-sulfonyl)-N-[(1-methyl-1H-pyrazol-4-yl)methyl]-1H-pyrrole-3-carboxamide], the “ECdelta5 mV” value is 3600 nM and the “Threshold Shift” value is reported as 17 mV.

Take `Cc1cc(CNC(=O)c2ccn(S(=O)(=O)c3ccccc3)c2)on1` [Compound 84, 1-(benzenesulfonyl)-N-[(3-methyl-1,2-oxazol-5-yl)methyl]-1H-pyrrole-3-carboxamide]: the “ECdelta5 mV” value came to 4600 nM and the “Threshold Shift” value was 12 mV.

With `Cc1cccc(S(=O)(=O)n2ccc(C(=O)NCc3cnc(C)cn3)c2)c1` [Compound 30, N-[(5-methylpyrazin-2-yl)methyl]-1-(m-tolylsulfonyl)pyrrole-3-carboxamide], the “ECdelta5 mV” value is on record as 2500 nM and the “Threshold Shift” value is on record as 17 mV.

For `COc1ccc(S(=O)(=O)n2ccc(C(=O)NCc3cnc(C)cn3)c2)cc1` [Compound 7, 1-(4-methoxyphenyl)sulfonyl-N-[(5-methylpyrazin-2-yl)methyl]pyrrole-3-carboxamide], the “ECdelta5 mV” value was found to be 1300 nM and the “Threshold Shift” value was determined as 33 mV.

Take `Cc1ccc(S(=O)(=O)n2ccc(C(=O)NCc3cc(C)no3)c2)cc1` [Compound 35, N-[(3-methylisoxazol-5-yl)methyl]-1-(p-tolylsulfonyl) pyrrole-3-carboxamide]: the “ECdelta5 mV” value is recorded as 1100 nM and the “Threshold Shift” value was 21 mV.

With `Cc1cnc(CNC(=O)c2ccn(S(=O)(=O)c3cccc(F)c3)c2)cn1` [Compound 5, 1-(3-fluorophenyl)sulfonyl-N-[(5-methylpyrazin-2-yl)methyl]pyrrole-3-carboxamide], the “ECdelta5 mV” value is listed as 7800 nM and the “Threshold Shift” value is reported as 10 mV.

Regarding `COc1ccc(S(=O)(=O)n2ccc(C(=O)NCc3cnc(C)cn3)c2)c(Cl)c1` [Compound 104, 1-(2-chloro-4-methoxy-phenyl)sulfonyl-N-[(5-methylpyrazin-2-yl)methyl]pyrrole-3-carboxamide], the “ECdelta5 mV” value is given as 1000 nM and the “Threshold Shift” value was determined as 31 mV.

Consider `Cc1ccc(S(=O)(=O)n2ccc(C(=O)NCc3ncc(C)cn3)c2)cc1` [Compound 1, N-[(5-methylpyrimidin-2-yl)methyl]-1-(p-tolylsulfonyl)pyrrole-3-carboxamide], for which the “ECdelta5 mV” value is reported as 1600 nM and the “Threshold Shift” value was 27 mV.

For the compound `Cc1ccc(S(=O)(=O)n2ccc(C(=O)NCc3nc(C)no3)c2)cc1` [Compound 43, N-[(3-methyl-1,2,4-oxadiazol-5-yl)methyl]-1-(p-tolylsulfonyl)pyrrole-3-carboxamide], the “ECdelta5 mV” value worked out at 1700 nM and the “Threshold Shift” value is given as 23 mV.

Regarding `COc1ccc(S(=O)(=O)n2ccc(C(=O)NCc3cnn(C)c3)c2)cc1` [Compound 69, 1-(4-methoxybenzene-1-sulfonyl)-N-[(1-methyl-1H-pyrazol-4-yl)methyl]-1H-pyrrole-3-carboxamide], the “ECdelta5 mV” value is 3000 nM and the “Threshold Shift” value amounted to 18 mV.

Turning to `COc1ccc(S(=O)(=O)n2ccc(C(=O)NCc3ccn(C)n3)c2)cc1` [Compound 66, 1-(4-methoxybenzene-1-sulfonyl)-N-[(1-methyl-1H-pyrazol-3-yl)methyl]-1H-pyrrole-3-carboxamide], the “ECdelta5 mV” value stood at 1400 nM and the “Threshold Shift” value amounted to 18 mV.

Take `Cc1ccc(S(=O)(=O)n2ccc(C(=O)NCc3ncccc3C)c2)cc1` [Compound 17, N-[(3-methyl-2-pyridyl)methyl]-1-(p-tolylsulfonyl)pyrrole-3-carboxamide]: the “ECdelta5 mV” value stood at 2300 nM and the “Threshold Shift” value was 16 mV.

On to `COc1cccnc1CNC(=O)c1ccn(S(=O)(=O)c2ccc(C)cc2)c1` [Compound 10, N-[(3-methoxy-2-pyridyl)methyl]-1-(p-tolylsulfonyl)pyrrole-3-carboxamide], for which the “ECdelta5 mV” value is 3600 nM and the “Threshold Shift” value is 10 mV.
